This is an account of results in ChEMBL document CHEMBL1201862, “PubChem BioAssay data set” (2004).

Among the test systems are 786-0; MDA-MB-231; SK-MEL-28; HOP-62; MOLT-4; NCI-H226; SF-539; NCI-H522; UO-31; U-251; NCI-H23; SK-MEL-5; COLO 205; SN12C; UACC-257; A549; NCI/ADR-RES; SNB-75; HOP-92; RXF 393.
Common to all, as to experiment: inhibition of tumour cell growth, NCI panel, 48 h

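Grown in 96-well plates, cells were treated for 48 hours with each compound at five concentrations. Insufficient inhibition: endpoint recorded as highest concentration tested. GI50 is the concentration that inhibits growth by half.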 The source made the active and inactive calls. Cut-off read from the data, not from the text of the source: active = GI50 up to about 1.1 µM and inactive = higher.

For the molecule `OC(C#Cc1ccccc1)(c1ccccc1)c1ccccc1`, the GI50 with 786-0 was > 100 µM (inactive); in the assay with MDA-MB-231, 51.8 µM (inactive); with SK-MEL-28, 51.1 µM (inactive); with HOP-62, > 100 µM (inactive); in the assay with MOLT-4 it was 47.6 µM (inactive); with NCI-H226 it was 26.2 µM (inactive). The GI50 is 77.1 µM (inactive) in the assay with SF-539; 30.9 µM (inactive) in the assay with NCI-H522; 40.8 µM (inactive) with UO-31; 26.7 µM (inactive) in the assay with U-251; 53.5 µM (inactive) in the assay on NCI-H23; 19 µM (inactive) with SK-MEL-5. Further, the GI50 in the assay with COLO 205 was 50.7 µM (inactive); with SN12C, 69.8 µM (inactive); with UACC-257, 24.5 µM (inactive); in the assay on A549, 21.2 µM (inactive); in the assay on NCI/ADR-RES it was 36.6 µM (inactive); with SNB-75, 55.3 µM (inactive).
As for `NC(CSC(c1ccccc1)(c1ccccc1)c1ccccc1)C(=O)O` (stereo not drawn), the GI50 with 786-0 was 0.971 µM (active); in the assay on MDA-MB-231 it was 1.42 µM (inactive); with SK-MEL-28 it was 10 µM (inactive); in the assay on HOP-62 it was 1.43 µM (inactive); in the assay with MOLT-4, 1.24 µM (inactive); in the assay on HOP-92, 7.31 µM (inactive). In addition, the GI50 in the assay with NCI-H226 is 3.59 µM (inactive); in the assay on SF-539 it was 0.396 µM (active); in the assay with NCI-H522 it was 0.59 µM (active); with UO-31, 18.5 µM (inactive); in the assay with U-251, 0.69 µM (active); in the assay with NCI-H23, 2.29 µM (inactive). For the same molecule, the GI50 was 0.69 µM (active) with SK-MEL-5; 0.665 µM (active) in the assay with COLO 205; 1.27 µM (inactive) in the assay on SN12C; 1.84 µM (inactive) with UACC-257; 0.822 µM (active) in the assay on A549; 6.67 µM (inactive) in the assay on NCI/ADR-RES. Further, in the assay on SNB-75, the GI50 was 1.74 µM (inactive).
As to `O=c1c2cc([N+](=O)[O-])cnc2sn1-c1ccc(Oc2ccccc2)cc1`, the GI50 with 786-0 was 43.5 µM (inactive); in the assay with MDA-MB-231 it was 22.1 µM (inactive); in the assay with SK-MEL-28, 22.4 µM (inactive); with HOP-62, 34.2 µM (inactive); in the assay with MOLT-4, > 100 µM (inactive); in the assay with HOP-92 it was 23 µM (inactive). Also, the GI50 in the assay on NCI-H226 was 45.2 µM (inactive); with SF-539, 23.3 µM (inactive); in the assay on NCI-H522, 4.66 µM (inactive); in the assay with UO-31, 56.6 µM (inactive); in the assay on U-251, 29.9 µM (inactive); in the assay on NCI-H23, 36.4 µM (inactive). Further, the GI50 was 88.5 µM (inactive) with SK-MEL-5; > 100 µM (inactive) in the assay with COLO 205; > 100 µM (inactive) in the assay with SN12C; > 100 µM (inactive) in the assay on UACC-257; > 100 µM (inactive) in the assay with A549; 32.8 µM (inactive) in the assay on NCI/ADR-RES. For the same molecule, in the assay on SNB-75, the GI50 was 51.6 µM (inactive).
In the case of `CN(C)CCCNC(=O)N/N=C/c1ccc([N+](=O)[O-])cc1`, the GI50 with 786-0, in the assay with MDA-MB-231, in the assay with SK-MEL-28, in the assay on HOP-62, in the assay on MOLT-4 and with NCI-H226 was > 100 µM (inactive) each time. Further, the GI50 was 82.2 µM (inactive) in the assay on SF-539; > 100 µM (inactive) with NCI-H522; > 100 µM (inactive) in the assay with UO-31; > 100 µM (inactive) in the assay with U-251; > 100 µM (inactive) with NCI-H23; > 100 µM (inactive) in the assay on SK-MEL-5. Besides, the GI50 in the assay with COLO 205 is > 100 µM (inactive); in the assay with SN12C, > 100 µM (inactive); in the assay with UACC-257, > 100 µM (inactive); in the assay on A549 it was > 100 µM (inactive); with NCI/ADR-RES, > 100 µM (inactive); in the assay on SNB-75 it was 25.4 µM (inactive).
Regarding `CN1C(=O)C2(C=CC(O)CC2)c2ccccc21` (stereo not drawn), the GI50 in the assay with 786-0, with MDA-MB-231, in the assay with SK-MEL-28, in the assay on HOP-62, in the assay on MOLT-4 and in the assay with HOP-92 was > 100 µM (inactive) throughout. The GI50 in the assay on NCI-H226, in the assay with NCI-H522, in the assay on UO-31, in the assay with U-251, with NCI-H23 and in the assay with SK-MEL-5 was > 100 µM (inactive) each time. For the same molecule, the GI50 with COLO 205, with SN12C, in the assay on UACC-257, in the assay with A549, in the assay with NCI/ADR-RES and in the assay on SNB-75 was > 100 µM (inactive) each time.
Consider `C=CC1(CCC(Br)C(C)(C)Cl)CO1` (stereo not drawn), for which the GI50 in the assay with 786-0, in the assay with MDA-MB-231, in the assay with SK-MEL-28, with HOP-62, in the assay on MOLT-4 and with HOP-92 was > 10 µM (inactive) in each case. Further, the GI50 with SF-539, in the assay with NCI-H522, in the assay on UO-31, with U-251, in the assay on SK-MEL-5 and with COLO 205 was > 10 µM (inactive) each time. Further, the GI50 in the assay on SN12C, in the assay with A549, in the assay with NCI/ADR-RES and in the assay with SNB-75 was > 10 µM (inactive) throughout.
Turning to `O=C(Cc1ccccc1)NNc1nc(NNC(=O)c2ccncc2)nc(Nc2ccc([N+](=O)[O-])cc2)n1`, the GI50 in the assay with 786-0, in the assay on MDA-MB-231, in the assay with SK-MEL-28, with HOP-62, in the assay on MOLT-4 and in the assay on HOP-92 was > 10 µM (inactive) each time. In addition, the GI50 with SF-539 is > 10 µM (inactive); with NCI-H522, > 10 µM (inactive); with UO-31, > 10 µM (inactive); in the assay on U-251, > 10 µM (inactive); with NCI-H23, 6.79 µM (inactive); with SK-MEL-5, > 10 µM (inactive). In addition, the GI50 in the assay with COLO 205 is > 10 µM (inactive); in the assay on SN12C, > 10 µM (inactive); in the assay with UACC-257, 5.69 µM (inactive); with A549 it was > 10 µM (inactive); in the assay on NCI/ADR-RES, > 10 µM (inactive); in the assay with SNB-75, > 10 µM (inactive).
As to `O=c1ss/c(=N\c2ccccc2)n1-c1ccccc1`, the GI50 is 18.3 µM (inactive) in the assay on 786-0; 25.9 µM (inactive) in the assay with MDA-MB-231; 36.9 µM (inactive) in the assay on SK-MEL-28; 20.6 µM (inactive) with HOP-62; 28.7 µM (inactive) in the assay with MOLT-4; 21.6 µM (inactive) in the assay with HOP-92. For the same molecule, the GI50 with NCI-H226 is 20.1 µM (inactive); with SF-539, 35.9 µM (inactive); in the assay with UO-31 it was 17.5 µM (inactive); with U-251, 23.2 µM (inactive); in the assay with NCI-H23, 21.7 µM (inactive); in the assay with SK-MEL-5, 32.4 µM (inactive). The GI50 in the assay with COLO 205 is 26.1 µM (inactive); in the assay on SN12C, 20.4 µM (inactive); in the assay with UACC-257, 20.4 µM (inactive); in the assay on A549 it was 35.4 µM (inactive); in the assay with NCI/ADR-RES, 28.3 µM (inactive); in the assay with SNB-75, 21.9 µM (inactive).
For the molecule `SC1=NNC2(C(S)=N1)c1ccccc1-c1ccccc12`, the GI50 with 786-0 is > 10 µM (inactive); in the assay on MDA-MB-231, > 10 µM (inactive); in the assay with HOP-62 it was > 10 µM (inactive); in the assay on MOLT-4, > 10 µM (inactive); in the assay on HOP-92, > 10 µM (inactive); in the assay on NCI-H226, 8.81 µM (inactive). The GI50 with SF-539 is > 10 µM (inactive); with UO-31, 4.51 µM (inactive); in the assay with U-251 it was > 10 µM (inactive); with NCI-H23 it was > 10 µM (inactive); in the assay with SK-MEL-5, > 10 µM (inactive); in the assay with COLO 205, > 10 µM (inactive). Besides, the GI50 in the assay with SN12C, with UACC-257, in the assay with A549, in the assay with NCI/ADR-RES and in the assay with SNB-75 was > 10 µM (inactive) in each case.
On to `O=C1NC(=O)C2(CCC(O)C2)c2cc[n+]([O-])cc21` (stereo not drawn), for which the GI50 with 786-0, in the assay with MDA-MB-231, with SK-MEL-28, with HOP-62, in the assay with MOLT-4 and in the assay on HOP-92 was > 100 µM (inactive) in each case. The GI50 with NCI-H226, in the assay with SF-539, with NCI-H522, in the assay with UO-31, in the assay with U-251 and with NCI-H23 was > 100 µM (inactive) throughout. Further, the GI50 in the assay with COLO 205 is > 100 µM (inactive); in the assay with SN12C it was > 100 µM (inactive); in the assay with UACC-257, > 100 µM (inactive); in the assay on RXF 393, > 100 µM (inactive); in the assay with A549, > 100 µM (inactive); in the assay on SNB-75, 60.1 µM (inactive).
On to `CN(C)CCN1C(=O)c2cccc3cc([N+](=O)[O-])cc(c23)C1=O` [MITONAFIDE], for which the GI50 in the assay with 786-0 was 0.195 µM (active); in the assay with MDA-MB-231 it was 1.31 µM (inactive); with SK-MEL-28, 1.34 µM (inactive); in the assay with HOP-62 it was 0.146 µM (active); in the assay on MOLT-4 it was 0.0406 µM (active); in the assay with HOP-92, 0.255 µM (active). The GI50 was 0.0789 µM (active) in the assay with NCI-H226; 0.155 µM (active) with SF-539; 0.281 µM (active) in the assay with NCI-H522; 0.248 µM (active) with UO-31; 0.213 µM (active) in the assay with U-251; 0.308 µM (active) in the assay on NCI-H23. The GI50 in the assay on SK-MEL-5 is 0.237 µM (active); with COLO 205, 0.191 µM (active); with SN12C, 0.179 µM (active); in the assay with UACC-257, 0.838 µM (active); in the assay with RXF 393 it was 0.337 µM (active); with A549 it was 0.0716 µM (active). The GI50 in the assay on SNB-75 is 0.194 µM (active).
